Reference: ChEMBL document CHEMBL5724581, “Toxicity screen in purified B cell assay results for EUbOPEN Chemogenomics Library” (2024)
Where “and” joins values, the source holds several entries; their conditions need not be identical. Equal entries are not always repeated. Bridge positions count the residues as written; N and C are the ends. Square brackets hold non-standard residues; d marks the D form. Peptide text beside a SMILES is read from it. * marks the point of attachment. dPhe(4-NHCONH2) = NC(=O)Nc1ccc(C[C@@H](N)C(=O)O)cc1; Dihydroorotyl(S) = O=C1C[C@@H](C(=O)*)NC(=O)N1; dPhe(4-Cl) = N[C@H](Cc1ccc(Cl)cc1)C(=O)O; Phe(4-NH2) = Nc1ccc(C[C@H](N)C(=O)O)cc1; d2Nal = N[C@H](Cc1ccc2ccccc2c1)C(=O)O; Lys(iPr) = CC(C)NCCCC[C@H](N)C(=O)O; d3Pal = N[C@H](Cc1cccnc1)C(=O)O; Orn = NCCC[C@H](N)C(=O)O; Mpa = O=C(O)CCS

test system: B cell; test: Cytotoxicity screening of chemical probes in isolated B cell assay. Data is normalized to DMSO control, the cell viability average of replicates are reported. Reduction of ATP level more than 20% indicate compromised cell health status.; conditions: human, 1 µM

SMILES | Cell Viability
CCOc1nc2cccc(C(=O)O)c2n1Cc1ccc(-c2ccccc2-c2nnn[nH]2)cc1 | 98.0011%
CCCCC(=O)N(Cc1ccc(-c2ccccc2-c2nnn[nH]2)cc1)[C@H](C(=O)O)C(C)C | 98.0011%
CC1(C)[C@H]2C[C@H](C/C=C\CCCC(=O)O)[C@@H](NC(=O)c3csc4ccc(O)cc34)[C@@H]1C2 | 98.0011%
COCCn1c(C)c(C)s/c1=N\C(=O)C1C(C)(C)C1(C)C | 98.0011%
CC#C[C@@H](CC(=O)O)c1ccc(OCc2cccc(-c3ccc(C(F)(F)F)cc3)c2)cc1 | 98.0011%
Cc1cc(OCCCS(C)(=O)=O)cc(C)c1-c1cccc(COc2ccc3c(c2)OC[C@H]3CC(=O)O)c1 | 98.0011%
COc1ccncc1C(=O)NC(=O)Nc1ccc(-c2ccccc2)c(C(F)(F)F)c1 | 98.0011%
COc1cccc2c1c(NS(=O)(=O)c1ccc(Cl)s1)nn2Cc1cccc(CNC(=O)C(C)(C)O)c1 | 103.681%
O=C(O)c1n[nH]c2c1C[C@H]1C[C@@H]21 | 98.0011%
CCc1nc2c(C)cc(C)nc2[nH]1 | 98.0011%
c1ccc(NCc2ccc(CNc3ccccn3)cc2)nc1 | 99.8082%
Cc1nnc(C(=O)NC(C)(C)c2nc(C(=O)NCc3ccc(F)cc3)c(O)c(=O)n2C)o1 | 103.493%
CSc1ccc(C(=O)N[C@@H]2CCCC[C@@H]2NC(=O)CNC(=O)c2cc(C(F)(F)F)ccc2NC(=O)NC(C)C)cc1 | 102.032%
CSc1cc2c(cc1C(F)(F)F)N(C(=O)Nc1cccnc1)CC2 | 98.0011%
CC[C@H]1OC(=O)[C@H](C)[C@@H](O[C@H]2C[C@@](C)(OC)[C@@H](O)[C@H](C)O2)[C@H](C)[C@@H](O[C@@H]2O[C@H](C)C[C@H](N(C)C)[C@H]2O)[C@@]2(C)CC(C)=C(O2)[C@H](C)[C@@H](O)[C@]1(C)O | 98.0011%
Cc1cc(Cn2cnc3c2C[C@@H](C(=O)O)N(C(=O)C(c2ccccc2)c2ccccc2)C3)ccc1N(C)C | 98.0011%
COc1ccc(C(=O)N2CCN(C(=O)/C=C/c3ccc(Br)cc3)CC2)cc1 | 98.0011%
Cc1nc[nH]c1CCN.Cl | 98.0011%
N#Cc1c(O)nc(SCc2cccc(F)c2F)nc1C1CC1 | 104.007%
Cc1ccc(Cn2nc(C(=O)N[C@@H]3C(C)(C)[C@@H]4CC[C@@]3(C)C4)cc2-c2ccc(Cl)c(C)c2)cc1 | 98.0011%
N#Cc1ccc(NC(=O)Nc2ccccc2Br)c2nn[nH]c12 | 104.304%
NS(=O)(=O)c1c(Cl)ccc(NC(=O)Nc2cccc(Cl)c2Cl)c1O | 102.927%
COc1cc(C(=O)N(CCCc2ccccc2)Cc2ccc(CC(=O)O)cc2)cc(OC)c1C | 98.0011%
C[C@H](CO)Nc1nc(SCc2cccc(Cl)c2F)nc2[nH]c(=O)sc12 | 95.8941%
O=C(NCc1ccc(F)cc1)N1CCN2C(=O)OC(c3ccccc3)(c3ccccc3)C2C1 (stereo not drawn) | 98.0011%
Cl.O=c1c2cccn2c2ccccc2n1CCCN1CCC(c2ccc(Cl)cc2)CC1 | 98.0011% and 103.839%
NC(=O)c1ccc(CNC(=O)NC[C@H]2CN(Cc3ccc(Cl)c(Cl)c3)CCO2)cc1 | 98.0011%

SMILES | Cell Viability
Nc1nc2c(c(N3CCNCC3)n1)CCC1=C2[C@@H]2CCCC[C@@H]2O1 | 100.079%
CCCn1c(=O)c2[nH]c(C3CCCC3)nc2n(CCC)c1=O [1,3-DIPROPYL-8-CYCLOPENTYLXANTHINE [DPCPX]] | 98.0011%
Cc1[nH]cnc1CN1CCc2c(c3ccccc3n2C)C1=O [ALOSETRON] | 98.0011%
COC(c1ccccc1)(c1ccccc1)[C@H](Oc1nc(C)cc(C)n1)C(=O)O [AMBRISENTAN] | 98.0011%
C[C@@H](O[C@H]1OCCN(Cc2n[nH]c(=O)[nH]2)[C@H]1c1ccc(F)cc1)c1cc(C(F)(F)F)cc(C(F)(F)F)c1 [APREPITANT] | 98.0011%
CCOc1ccc(C[C@H]2NC(=O)CCSSC[C@@H](C(=O)N3CCC[C@H]3C(=O)N[C@@H](CCCN)C(=O)NCC(N)=O)NC(=O)[C@H](CC(N)=O)NC(=O)[C@H]([C@@H](C)O)NC(=O)[C@H]([C@@H](C)CC)NC2=O)cc1 [ATOSIBAN] ([Mpa][dY](Et)ITNCP[Orn]G-NH2; disulfide 1-6) | 98.0011%
CC(C)C[C@H](CO)Nc1nc(S[C@@H](C)c2ccccc2)nc2nc(N)sc12 [AZD-8797] | 97.9584%
CC(C)C[C@@H]1NC(=O)[C@@H](C(C)C)NC(=O)[C@@H]2CCCN2C(=O)[C@@H](CC(=O)O)NC(=O)[C@@H](Cc2c[nH]c3ccccc23)NC1=O [BQ-123] (cyclo(L[dW][dD]P[dV])) | 98.0011%
C[C@@H]1CN(Cc2ccc(F)cc2)CCN1C(=O)COc1ccc(Cl)cc1NC(N)=O [BX 471 FREE BASE] | 98.0011% and 103.598%
Cc1c(F)cccc1NC(=O)Nc1ccc(Cl)c(S(=O)(=O)[C@H]2CCCNC2)c1O [DANIRIXIN] | 101.889%
CC(=O)N[C@H](Cc1ccc2ccccc2c1)C(=O)N[C@H](Cc1ccc(Cl)cc1)C(=O)N[C@H](Cc1cccnc1)C(=O)N[C@@H](CO)C(=O)N[C@@H](Cc1ccc(NC(=O)[C@@H]2CC(=O)NC(=O)N2)cc1)C(=O)N[C@H](Cc1ccc(NC(N)=O)cc1)C(=O)N[C@@H](CC(C)C)C(=O)N[C@@H](CCCCNC(C)C)C(=O)N1CCC[C@H]1C(=O)N[C@H](C)C(N)=O [DEGARELIX] (Ac-[d2Nal][dPhe(4-Cl)][d3Pal]S[Phe(4-NH2)](Dihydroorotyl(S))[dPhe(4-NHCONH2)]L[Lys(iPr)]P[dA]-NH2) | 98.0011%
O=C(O)Cc1ccccc1Nc1c(Cl)cccc1Cl [DICLOFENAC] | 98.0011% and 91.1433%
C[C@]12N[C@H](Cc3ccccc31)c1ccccc12 [DIZOCILPINE] | 98.0011%
O=S(=O)(c1ccccc1)c1cnc2c(N3CCNCC3)cccc2c1 [INTEPIRDINE] | 98.0011%
c1cc(OCCCN2CCCCC2)ccc1CN1CCCCC1 [JNJ-5207852] | 98.0011%
CCNC1(C(N)=O)CCN(c2ncnc3c2nc(-c2ccccc2Cl)n3-c2ccc(Cl)cc2)CC1 [OTENABANT] | 98.0011%
O=C(NCC(=O)N1CC[C@H](N[C@H]2CC[C@@](O)(c3ccc(-c4ncccn4)cn3)CC2)C1)c1cccc(C(F)(F)F)c1 [PF-4136309] | 99.5458%
c1cc(CN2CCCNCCNCCCNCC2)ccc1CN1CCCNCCNCCCNCC1 [PLERIXAFOR] | 104.498%
CC(C)Cc1ccc([C@@H](C)C(=O)NS(C)(=O)=O)cc1 [REPARIXIN] | 98.0011% and 100.432%
Cc1c(C(=O)NN2CCCCC2)nn(-c2ccc(Cl)cc2Cl)c1-c1ccc(Cl)cc1 [RIMONABANT] | 98.0011%
C[C@@H](OC[C@@]1(c2ccccc2)CC[C@]2(CCC(=O)N2)CN1)c1cc(C(F)(F)F)cc(C(F)(F)F)c1 [ROLAPITANT] | 98.0011%
CC(C)N(CCCCOCC(=O)NS(C)(=O)=O)c1cnc(-c2ccccc2)c(-c2ccccc2)n1 [SELEXIPAG] | 98.0011%
Cc1ccc2c(c1CCC(=O)O)CC[C@@H](NS(=O)(=O)c1ccc(Cl)cc1)C2 [TERUTROBAN] | 98.0011%
Cl.Clc1ccc2nsnc2c1NC1=NCCN1 [TIZANIDINE HYDROCHLORIDE] | 98.0011%
Cc1ccc(/C(=C\CN2CCCC2)c2ccccn2)cc1 [TRIPROLIDINE] | 98.0011%
COC[C@@H](c1ccc(C(F)(F)F)cc1)N1CCN(C2(C)CCN(C(=O)c3c(C)ncnc3C)CC2)C[C@@H]1C.O=C(O)/C=C\C(=O)O [VICRIVIROC MALEATE] | 101.876%
